For one assay, the system named is P protein-expressing yeast cells and control yeast cells. The assay is described as follows: Selenite exposure of yeast: colony size and red precipitate formation. The format is cell-based. To be noted: 10-50 mM selenite in agar, 30° C. for 3 days, FIG. 3B. The method, then:
In another experiment, P protein-expressing yeast cells and control yeast cells were exposed to various concentrations of selenite. The toxic affect of selenite in yeast is believed to be due to DNA damage. The major mode of selenite detoxification appears to be its reduction by glutathione to elementary selenium that accumulates as a red precipitate in the cell vacuole (Pinson et al. Molecular Microbiology 36:679-687(2000)).
10 mM, 20 mM, 30 mM, 40 mM, and 50 mM selenite solutions were prepared in 55° C. selective medium-agar and plated in duplicate into 24-well plates. Actively growing yeast cultures were diluted to A600 values of 0.001, and then 10 μl aliquots were spotted in duplicate onto the selenite-containing agar medium. Plates were incubated at 30° C. for 3 days. […]
Regarding `O=[Se](O)O` [selenite], the “red precipitate accumulation in P-expressing cells vs control cells” value is “accumulate more red precipitate” and the “selenite sensitivity, cells expressing a P protein versus control cells” value is “no difference”.

The next assay concerns yeast cells expressing the P protein. The assay is described as follows: Nigericin effect on yeast cell viability, P protein-expressing cells. The format is cell-based. To be noted: Saccharomyces cerevisiae, data not shown.
On to `CO[C@@H]1C[C@@H](C[C@H]2CC[C@H](C)[C@H]([C@@H](C)C(=O)O)O2)O[C@]2(O[C@](C)([C@H]3CC[C@@](C)([C@@H]4O[C@@H]([C@H]5O[C@@](O)(CO)[C@H](C)C[C@@H]5C)C[C@@H]4C)O3)C[C@H]2C)[C@@H]1C` [nigericin], for which the half-inhibitory concentration (IC50) (as a rule, the concentration that gives 50% inhibition) came to 3 µM.

Another assay concerns yeast cells expressing / not expressing the P protein (strain SH3866).
Test: not given
It is filed as cell-based.
Settings: not given
As for `[Sb]` [ANTIMONY, antimony], the “yeast colony size, P protein-expressing vs non-expressing colonies exposed to the compound” value is recorded as “do not reach the same size”.

Still in this assay, the particulars now being: 24-well selective medium-agar, 30° C. for 3 days, FIG. 3A.
Turning to arsenate, the “yeast colony size, P protein-expressing vs non-expressing colonies exposed to the compound” value was “do not reach the same size”.
Same read-out and setting: the entry for arsenic trioxide is “do not reach the same size”.

A further assay deals with wild-type melan-a melanocytes (A) and P-null melanocytes (P).
Test: not given
It is filed as cell-based.
Settings: not given
Turning to `C=CCC(N)C(=O)O` (stereo not shown) [ALLYLGLYCINE, allylglycine], the “TOXIN S[…] CHANGE (as a function of P protein expression)” value is on record as “✓”.
As for `C[C@@H]1[C@H](O)[C@@H](C)/C=C/C=C/C=C/C=C/C=C/C=C/C=C/[C@H](O[C@@H]2O[C@H](C)[C@@H](O)[C@H](N)[C@@H]2O)C[C@@H]2O[C@](O)(C[C@@H](O)C[C@@H](O)[C@H](O)CC[C@@H](O)C[C@@H](O)CC(=O)O[C@H]1C)C[C@H](O)[C@H]2C(=O)O` [AMPHOTERICIN, amphotericin], the “TOXIN S[…] CHANGE (as a function of P protein expression)” value is “✓”.
With `[Sb]` [ANTIMONY, antimony], the “TOXIN S[…] (as a function of P protein expression)” value is “✓”.
Same read-out and setting: the entry for `CO/C1=C\C(C)=C\[C@@H](C)[C@@H](O)[C@@H](C)C/C(C)=C/C=C/[C@H](OC)[C@@H]([C@@H](C)[C@@H](O)[C@H](C)[C@@]2(O)C[C@@H](O)[C@H](C)[C@@H](C(C)C)O2)OC1=O` [BAFILOMYCIN Al, bafilomycin A1] is “✓”.
Still for that read-out and setting: the entry for `CCCCS(=N)(=O)CCC(N)C(=O)O` (stereo not shown) [BUTHIONINE SULFOXIMINE (BSO), buthionine sulfoximine] is “✓”.
Turning to `[Cd]` [CADMIUM, cadmium], the “TOXIN S[…] (as a function of P protein expression)” value is given as “✓”.
In the case of `CCN(CC)CCCC(C)Nc1ccnc2cc(Cl)ccc12` (stereo not shown) [CHLOROQUINE, chloroquine], the “TOXIN S[…] (as a function of P protein expression)” value is given as “✓”.
Same read-out and setting: the entry for `N.N.[Cl][Pt][Cl]` [CISPLATIN, cisplatin] is “✓”; for `C[C@@H]1C[C@@H]([C@H](O)CC2CC(=O)NC(=O)C2)C(=O)[C@@H](C)C1` [CYCLOHEXIMIDE, cycloheximide] it is “✓”.
On to `COc1cccc2c1C(=O)c1c(O)c3c(c(O)c1C2=O)C[C@@](O)(C(=O)CO)C[C@@H]3O[C@H]1C[C@H](N)[C@H](O)[C@H](C)O1` [DOXORUBICIN, doxorubicin], for which the “TOXIN S[…] (as a function of P protein expression)” value is given as “✓”.
For the compound `C=C(CC)C(=O)c1ccc(OCC(=O)O)c(Cl)c1Cl` [ETHACRYNIC ACID, ethacrynic acid], the “TOXIN S[…] (as a function of P protein expression)” value is reported as “✓”.
Turning to `N#CC(C#N)=NNc1ccc(OC(F)(F)F)cc1` [FCCP, carbonyl cyanide p-trifluoromethoxyphenylhydrazone], the “TOXIN S[…] (as a function of P protein expression)” value is on record as “✓”.
Consider `O=S(=O)([O-])[O-].[Fe+2]` [IRON SULFATE (FESO4), iron sulfate (FeSO4)], for which the “TOXIN S[…] (as a function of P protein expression)” value is “✓”.
For the compound `CC[C@H]1/C=C/C=C/C[C@@H](C)[C@H](O)[C@@](C)(O)C(=O)[C@@H](C)[C@H](O)[C@@H](C)C(=O)[C@@H](C)[C@H](O)[C@@H](C)/C=C/C(=O)O[C@@H]2[C@H](C)[C@H](CC1)O[C@]1(CC[C@H](C)[C@H](C[C@@H](C)O)O1)[C@H]2C` [OLIGOMYCIN, oligomycin], the “TOXIN S[…] (as a function of P protein expression)” value was “✓”.
Take `COc1cc(NC(C)CCCN)c2ncccc2c1` (stereo not shown) [PRIMAQUINE, primaquine]: the “TOXIN S[…] CHANGE (as a function of P protein expression)” value is reported as “✓”.
`O=[Se](=O)(O)O` [SELENATE, selenate]: the “TOXIN S[…] (as a function of P protein expression)” value is “✓”.
For `CC(C)[C@@H]1NC(=O)[C@H](C)OC(=O)[C@@H](C(C)C)NC(=O)[C@@H](C(C)C)OC(=O)[C@H](C(C)C)NC(=O)[C@H](C)OC(=O)[C@@H](C(C)C)NC(=O)[C@@H](C(C)C)OC(=O)[C@H](C(C)C)NC(=O)[C@H](C)OC(=O)[C@@H](C(C)C)NC(=O)[C@@H](C(C)C)OC1=O` [VALINOMYCIN, valinomycin], the “TOXIN S[…] (as a function of P protein expression)” value was “✓”.
Turning to `CC[C@]1(O)C[C@@H]2CN(CCc3c([nH]c4ccccc34)[C@@](C(=O)OC)(c3cc4c(cc3OC)N(C)[C@H]3[C@@](O)(C(=O)OC)[C@H](OC(C)=O)[C@]5(CC)C=CCN6CC[C@]43[C@@H]65)C2)C1` [VINBLASTINE, vinblastine], the “TOXIN S[…] (as a function of P protein expression)” value is “✓”.
With arsenate, the “TOXIN S[…] (as a function of P protein expression)” value is “✓”.
On to arsenic trioxide, for which the “TOXIN S[…] (as a function of P protein expression)” value is “✓”.
With arsenite, the “TOXIN S[…] (as a function of P protein expression)” value is recorded as “✓”.

The next assay has as its system yeast cells not expressing the P protein. The assay is described as follows: Nigericin effect on yeast cell viability, cells without P protein. It is filed as cell-based. The note with it: Saccharomyces cerevisiae, data not shown.
Compound `CO[C@@H]1C[C@@H](C[C@H]2CC[C@H](C)[C@H]([C@@H](C)C(=O)O)O2)O[C@]2(O[C@](C)([C@H]3CC[C@@](C)([C@@H]4O[C@@H]([C@H]5O[C@@](O)(CO)[C@H](C)C[C@@H]5C)C[C@@H]4C)O3)C[C@H]2C)[C@@H]1C` [nigericin] yielded an IC50 of 25 µM.

Values taken from patent US7378232B2 (priority 2002, dated 2008).
